Test results: US20190166840A1, “SUBSTITUTED PYRAZOLINYL DERIVATIVES, PROCESSES FOR THEIR PREPARATION AND THEIR USE AS HERBICIDES AND/OR PLANT GROWTH REGULATORS” (BAYER CROPSCIENCE AKTIENGESELLSCHAFT, priority 2016, published 2019)

How the values were obtained:
Format in all cases: in vivo
Details in all cases: application rate 1280 g/ha, scored visually after about 3 weeks
Setaria viridis = assay: Pre-emergence herbicidal action, SETVI
Description: (§1) Pre-Emergence Herbicidal Action Seeds of mono- and dicotyledonous weed plants or crop plants were placed in sandy loam in wood fibre pots and covered with soil. The formulated compounds of the general formula (I) according to the invention were then applied to the surface of the covering soil in the form of an aqueous suspension or emulsion at an application rate of 600 l of water/ha (converted) with addition of 0.2% wetting agent. After the treatment, the pots were placed in a greenhouse and kept under good growth conditions for the test plants. After about 3 weeks, the effect was scored visually in percent in comparison to untreated controls. For example, 100% activity=the plants have died, 50% herbicidal activity or damage=plants reduced to 50% or plant material reduced by 50%, 0% activity=like control plants. Here, in the biological tests, the compounds of the general formula (I) according to the invention were in each case employed in a formulation, with the numerations of Tables I.1 to I.77 also applying here. Here, the herbicidal action of the compounds of the general formula (I) according to the invention was examined for the following harmful plants: SETVI=Setaria viridis The respective herbicidal action was in each case determined at the same point in time after application of the formulation in question, i.e. damage of the harmful plant in question in %. Pre-emergence herbicidal action of the compounds of the general formula (I) according to the invention: […]

[1] = tested on: Matricaria inodora (=Tripleurospermum maritimum subsp. inodorum); assay: Pre-emergence herbicidal action, MATIN
Description: as §1, with “MATIN=Matricaria inodora (=Tripleurospermum maritimum subsp. inodorum)” for “SETVI=Setaria viridis”

Abutilon theophrasti = assay: Pre-emergence herbicidal action, ABUTH
Description: as §1, with “ABUTH=Abutilon theophrasti” for “SETVI=Setaria viridis”

Ipomoea purpurea = assay: Pre-emergence herbicidal action, PHBPU
Description: as §1, with “PHBPU=Ipomoea purpurea” for “SETVI=Setaria viridis”

Alopecurus myosuroides = assay: Pre-emergence herbicidal action, ALOMY
Description: as §1, with “ALOMY=Alopecurus myosuroides” for “SETVI=Setaria viridis”

Compound	Pre-emergence herbicidal action SETVI, damage of the harmful plant (Setaria viridis)	Pre-emergence herbicidal action MATIN, damage of the harmful plant [1]	Pre-emergence herbicidal action ABUTH, damage of the harmful plant (Abutilon theophrasti)	Pre-emergence herbicidal action PHBPU, damage of the harmful plant (Ipomoea purpurea)	Pre-emergence herbicidal action ALOMY, damage of the harmful plant (Alopecurus myosuroides)
CC1=C(C)C(O)N(C2=NN(c3ccccn3)C(C)(C)C2)C1=O (stereo not drawn) [I.2-132]	40%	0%	70%	0%	70%
CC1=C(C)C(O)N(C2=NN(c3ccccc3)C(C(F)(F)F)C2)C1=O (stereo not drawn) [I.2-1413]	70%	100%	0%	0%	70%
CCC(=O)OC1C(C)=C(C)C(=O)N1C1=NN(c2ccccn2)C(C)(C)C1 (stereo not drawn) [I.23-132]	0%	40%	0%	30%	60%
CCC(=O)OC1C(C)=C(C)C(=O)N1C1=NN(c2ccccc2)CC1 (stereo not drawn) [I.23-621]	50%	50%	0%	0%	0%
CCC(=O)OC1C(C)=C(C)C(=O)N1C1=NN(c2ccccc2)C(C(F)(F)F)C1 (stereo not drawn) [I.23-1413]	40%	70%	0%	0%	0%
CCC(=O)OC1C(C)=C(Cl)C(=O)N1C1=NN(C)C(c2ccccc2)C1 (stereo not drawn) [I.24-1126]	0%	90%	0%	100%	10%
